Assay results as given in patent US7910622B2, “Modulation of bacterial quorum sensing with synthetic ligands” (Wisconsin Alumni Research Foundation, priority 2007, dated 2011).
pEC50, pIC50: −log10 of the molar value. “And” between values parts separate entries of the source, which are not always exact repeats. Equal values may be shown once. Read-outs that look alike come from different tables or passages of the source.

Assays:
[1] = system: V. fischeri ES114 (Δ-luxR); test: Luminescence assay in Δ-luxR derivative of V. fischeri ES114; type: cell-based, Vibrio fischeri
Description: (§1) Vibrio fischeri assay procedures. For primary agonism assays, an appropriate amount of concentrated control or PHL (11) stock solution, to give a final concentration of 200 μM, was added to wells in a 96-well multititer plate. An overnight culture of V. fischeri ES114 (WT, Δ-luxI or Δ-luxR) was diluted 1:10 with LBS medium. A-200 μL portion of the diluted culture was added to each well of the plate. Plates were grown at RT with shaking (200 rpm) until the OD600=0.35-0.4 (4-6 h). Luminescence then was measured and normalized to cell density per well. […] Similar methods were used for dose response assays, except the concentrations of controls and PHLs 11 used were between 0.02 and 2×10^5 nM. All assays were performed in triplicate. IC50 and EC50 values were calculated using GraphPad Prism software using a sigmoidal curve fit.

LuxR [2] = target: T1, LuxR (Aliivibrio fischeri, UniProt P35327); test: cell-based; design: species or system Vibrio fischeri; settings: for pEC50: LuxR EC50, V. fischeri ES114 (Δ-luxI); for activation at 200 µM: read-out: V. fischeri-LuxR Activation [%], 200 μM ligand; for activation at 200 µM / V. fischeri-LuxR Activation [%]: V. fischeri ES114 (Δ-luxI), normalized to OHHL; for V. fischeri-LuxR Activation [%]: 200 μM ligand
T1 construct: a Δ-luxI derivative of V. fischeri ES114, in which the native lux operon behaves as the bioluminescent reporter; endogenous in cells; host or cells: V. fischeri ES114 (Δ-luxI)
T1 sequence (P35327 whole entry): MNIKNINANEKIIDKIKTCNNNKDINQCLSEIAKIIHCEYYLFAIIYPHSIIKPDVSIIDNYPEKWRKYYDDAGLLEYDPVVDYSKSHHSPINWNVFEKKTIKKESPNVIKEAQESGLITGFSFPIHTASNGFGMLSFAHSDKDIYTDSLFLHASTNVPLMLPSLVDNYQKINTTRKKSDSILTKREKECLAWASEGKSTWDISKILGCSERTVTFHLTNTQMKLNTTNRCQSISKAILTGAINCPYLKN
Summary of the method: (§2)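 Whole-cell luminescence reporter in V. fischeri ES114 (WT, Δ-luxI or Δ-luxR) or E. coli, overnight cultures diluted 1:10 and grown with compound at RT (E. coli 30° C) to OD600 0.35-0.4 (4-6 h). Luminescence normalized to cell density, triplicates; EC50/IC50 from sigmoidal fit.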

[3] = system: wild-type V. fischeri ES114; test: Luminescence dose response in wild-type V. fischeri ES114; type: cell-based, Vibrio fischeri; settings: relative to OHHL
Description: as §1

LuxR [4] = target: T1, LuxR; test: cell-based; type: cell-based, Vibrio fischeri; settings: for V. fischeri-LuxR Inhibition [%]: 5 μM synthetic ligand against 5 μM OHHL
Summary of the method: as §2

Euprymna scolopes squid = test: Preliminary experiments in squid / invertebrate model systems (tolerance, activity in vivo)
[5] = target: QscR:DNA binding (PA1897 promoter) (Pseudomonas aeruginosa, UniProt G3XD77); settings: EMSA
Chain of QscR:DNA binding (PA1897 promoter) (G3XD77 entry or part of it): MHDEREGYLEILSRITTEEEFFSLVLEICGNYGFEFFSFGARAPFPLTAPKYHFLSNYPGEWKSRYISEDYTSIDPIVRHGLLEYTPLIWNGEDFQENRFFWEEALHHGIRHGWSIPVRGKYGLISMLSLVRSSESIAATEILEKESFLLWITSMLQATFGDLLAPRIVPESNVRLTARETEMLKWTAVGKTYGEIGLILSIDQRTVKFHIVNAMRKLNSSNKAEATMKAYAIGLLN
Source text: We sought to obtain further insights into the mechanism of QscR modulation by non-native AHLs. […] We therefore performed electromobility shift assays (EMSA) on purified QscR and radiolabeled PA1897 promoter in the presence of selected QscR antagonists and 1.

LasR [6] = target: T2, LasR (Pseudomonas aeruginosa, UniProt P25084); test: cell-based; type: cell-based; settings: for E. coli-LasR Inhibition [%]: 5 μM synthetic ligand against 7.5 nM OdDHL
T2 construct: expressed in transfected cells; host or cells: E. coli DH5α (pJN105L pSC11), arabinose-induced
T2 sequence (P25084 whole entry): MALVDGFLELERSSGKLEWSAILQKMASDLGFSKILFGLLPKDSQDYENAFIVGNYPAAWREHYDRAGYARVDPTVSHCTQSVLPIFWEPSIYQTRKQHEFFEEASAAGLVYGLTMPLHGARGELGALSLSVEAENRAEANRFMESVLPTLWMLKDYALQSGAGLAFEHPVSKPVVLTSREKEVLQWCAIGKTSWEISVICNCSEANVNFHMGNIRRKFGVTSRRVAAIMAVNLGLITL
Summary of the method: (§3)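 E. coli DH5α carrying pJN105L/pSC11 grown to OD600 0.3, LasR expression induced with arabinose (4 mg/mL), then incubated with AHLs at 37 °C to OD600 0.45. LasR activity read by β-galactosidase reporter assay; IC50/EC50 from sigmoidal dose-response fits.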

TraR = target: T3, TraR (Agrobacterium tumefaciens, UniProt P33905); test: cell-based; settings: for A. tumefaciens-TraR Activation [%]: 10 μM ligand; for A. tumefaciens-TraR Inhibition [%]: 10 μM synthetic ligand against 100 nM OOHL
T3 construct: These strains lack their AHL synthase (I) genes, but retain their native R genes; endogenous in cells; host or cells: A. tumefaciens WCF47 (Δ-traI) with PtraI-lacZ plasmid pCF372
T3 sequence (P33905 whole entry): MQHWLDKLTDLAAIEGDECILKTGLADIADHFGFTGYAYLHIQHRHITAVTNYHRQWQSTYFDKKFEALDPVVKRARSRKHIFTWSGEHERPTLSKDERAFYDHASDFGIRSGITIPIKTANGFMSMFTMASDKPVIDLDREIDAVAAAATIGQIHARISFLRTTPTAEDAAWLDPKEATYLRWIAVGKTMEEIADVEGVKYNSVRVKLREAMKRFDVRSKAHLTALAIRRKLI

LasR [7] = target: T2, LasR; test: cell-based; settings: for E. coli-LasR Activation [%]: 5 μM ligand
Summary of the method: as §3

LuxR [8] = target: T4, LuxR (Aliivibrio fischeri, UniProt P12746); test: LuxR luminescence antagonism and agonism assays in E. coli JM109 (pSB401); type: cell-based, Vibrio fischeri; settings: EC50 of autoinducer in E. coli JM109 (pSB401)
T4 construct: expressed in transfected cells; host or cells: E. coli JM109 (pSB401)
T4 sequence (P12746 whole entry): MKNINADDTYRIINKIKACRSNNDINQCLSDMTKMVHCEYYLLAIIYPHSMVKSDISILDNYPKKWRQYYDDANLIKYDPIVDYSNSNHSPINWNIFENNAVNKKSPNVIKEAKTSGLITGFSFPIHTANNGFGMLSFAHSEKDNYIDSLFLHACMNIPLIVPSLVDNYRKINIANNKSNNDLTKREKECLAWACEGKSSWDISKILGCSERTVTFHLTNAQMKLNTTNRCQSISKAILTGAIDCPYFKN
Description: Competitive inhibition assays were performed in the presence of both OHHL and PHLs 11 (at a 1:1 ratio), while agonism assays were performed with PHLs alone.
Luminescence assays. For agonism assays, an appropriate amount of AHL stock solution was added into a 96-well plate. […] A 200-μL portion of the diluted culture was added to each well of the plate. […] Luminescence was measured using a multilabel plate reader and normalized to cell density. […] All assays were performed in triplicate. Graphpad Prism software was used to calculate IC50 and EC50 values.
E. coli assay procedures. […] An overnight culture of E. coli JM109 (pSB401) was diluted 1:10 with LB medium (containing 10 μg/mL tetracycline). A 200-μL portion of the diluted culture was added to each well of the plate. Plates were grown at 30° C. with shaking (200 rpm) until the OD600=0.35-0.4 (6-8 h). Luminescence then was measured and normalized to cell density per well. […] All assays were performed in triplicate.

elastase B production = test: microbe, parasite or virus in culture; type: cell-based, Pseudomonas aeruginosa; settings: P. aeruginosa PAO1; 200 μM
Description: Elastase B production assay in P. aeruginosa. Elastase B activity in P. aeruginosa was measured according to a previously reported method, with the following modifications. P. aeruginosa PAO1 was grown overnight in LB media at 37° C., after which it was diluted to an OD600=0.1. Portions (2 mL) of this culture was added to test tubes containing synthetic compounds to give final concentrations of 20 μM or 200 μM and incubated for 12-14 h at 37° C. with 200 rpm shaking. The OD600 was measured for each tube, after which the contents of the tubes were filtered through a […] Whatman filter to remove all cellular matter. A 100 μL-aliquot of the supernatant was added to 900 μL of an Elastin Congo Red Solution (5 mg of Elastin Congo red substrate per 1 mL of 100 mM Tris-HCl, 1 mM CaCl2 (pH 7.2)) and incubated for 12 h at 37° C. with 250 rpm shaking. The contents of these tubes were then filtered in order to remove unreacted Elastin Congo red substrate. Elastase B activity was then calculated (normalized) by dividing the absorbance of the cleaved Congo red (OD492) by the cell density (OD600 of the cells before first filtration).
Elastase B production assay in P. aeruginosa. Elastase B activity in P. aeruginosa was measured according to a previously reported method, with the following modifications. P. aeruginosa PAO1 was grown overnight at 37° C. and then diluted 1:10 with fresh LB medium. Portions (2 mL) of this culture were added to test tubes containing synthetic compounds to give final compound concentrations of 20 μM or 200 μM. The tubes were incubated for 12-14 h at 37° C. The OD600 was measured for each tube, after which the contents of the tubes were filtered through a 0.2 μm Whatman filter to remove all cellular matter. A 100 μL aliquot of the supernatant was added to 900 μL of an elastin-Congo red solution (5 mg of elastin-Congo red substrate per 1 mL of buffer (100 mM Tris-HCl, 1 mM CaCl2, pH 7.2)) and incubated for 12 h at 37° C. with 250 rpm shaking. The contents of these tubes were then filtered in order to remove unreacted elastin-Congo red substrate, and the supernatant containing cleaved Congo red was isolated. A 200 μL aliquot of the supernatant was added to a 96-well multititer plate, and the OD492 was measured. Elastase B activity was calculated by dividing the absorbance of the cleaved Congo red solution (OD492) by the cell density (OD600 of the cells before first filtration).

[9] = V. fischeri ES114 (Δ-luxI), normalized to OHHL
[10] = E. coli DH5α (pJN105L pSC11), normalized to OdDHL
[11] = A. tumefaciens WCF47 (pCF372), normalized to OOHL

Compound	V. fischeri-LuxR Inhibition [%] (LuxR [4]; [9])	V. fischeri-LuxR Activation [%] (LuxR [2])	E. coli-LasR Inhibition [%] (LasR [6]; [10])	A. tumefaciens-TraR Activation [%] (TraR; [11])	A. tumefaciens-TraR Inhibition [%] (TraR; [11])	E. coli-LasR Activation [%] (LasR [7]; [10])	other results
O=C(Cc1cccc([N+](=O)[O-])c1)N[C@H]1CCOC1=O [11n, N-(3-nitro-phenylacetanoyl)-L-homoserine lactone]	no inhibitory activity						luminescence / activity in Δ-luxR derivative of V. fischeri ES114 [1]: Neither 11n nor OHHL induced any detectable luminescence; EC50 lower / activity higher relative to OHHL (LuxR [2]; LuxR): 10 fold; pEC50 (LuxR [2]): 6.52; luminescence induced higher than native ligand OHHL (LuxR [2]; primary agonism assay, 200 μM, same concentration as OHHL): 29%; activation at 200 µM (LuxR [2]): ≥ 60%; activity in wild-type V. fischeri [3]: similarly heightened activity; activity / modulation of quorum sensing in vivo (Euprymna scolopes squid): active in vivo; tolerance in squid / invertebrate model systems (Euprymna scolopes squid): well tolerated
CCOc1ccc(CC(=O)N[C@H]2CCOC2=O)cc1 [C25]							Activation (%) (LuxR [2]; V. fischeri-LuxR, Library C primary agonism screen): 2%; inhibition of OdDHL-dependent QscR:DNA binding [5]: capable of inhibiting OdDHL (1)-dependent QscR:DNA binding; Inhibition (%) (LasR [6]; E. coli-LasR, Library C primary antagonism screen): 15%; Inhibition (%) (LuxR [4]; V. fischeri-LuxR, Library C primary antagonism screen): 55%; Activation (%) (TraR; A. tumefaciens-TraR, Library C primary agonism screen): 0%; Inhibition (%) (TraR; A. tumefaciens-TraR, Library C primary antagonism screen): 35%; Activation (%) (LasR [7]; E. coli-LasR, Library C primary agonism screen): 0%
COc1ccccc1C1CCN(c2ccc(C=CC(=O)NC3CCOC3=O)cc2[N+](=O)[O-])CC1 (stereo not shown) [D18]	19%	2%	34%	0%	16%	32%	LasR: maximum induction value achievable (value in parentheses) (LasR [7]; at 200 μM ligand, relative to natural ligand): 32%; pEC50 (LasR [7]; read-out: LasR EC50): 6.33
O=C(CCC(=O)OC(C(=O)c1ccccc1)c1ccccc1)N[C@H]1CCOC1=O (stereo partly shown) [D19]	30%	1%	17%	0%	11%	7%	
O=C(NC1CCOC1=O)c1ccc(N=Nc2ccccc2)cc1 (stereo not shown) [D20]	46%	2%	12%	0%	4%	0%	
CCCC(=O)CC(=O)N[C@H]1CCOC1=O [compound 3, N-(3-oxo-hexanoyl)-L-homoserine lactone, reference compound]							pEC50 (LuxR [2]): 5.52 and ~5.30; pEC50 (LuxR [8]): ~8.00 and 7.70
CCCCCCC(=O)NC1CCOC1=O (stereo not shown) [compound 4]							activation at 200 µM (LuxR [2]): ~25%; inhibition at 5 µM (LasR [6]; read-out: E. coli-LasR Inhibition [%], 5 μM synthetic ligand against 7.5 nM OdDHL, E. coli DH5α (pJN105L pSC11), normalized to OdDHL): ~25%; pIC50 (LuxR [4]; LuxR IC50, determined against 5 μM OHHL): 5.87; inhibition at 5 µM (LuxR [4]; read-out: V. fischeri-LuxR Inhibition [%], 5 μM synthetic ligand against 5 μM OHHL, V. fischeri ES114 (Δ-luxI), normalized to OHHL): ~76%; pIC50 (TraR): 6.16; activation at 10 µM (TraR; read-out: A. tumefaciens-TraR Activation [%]): 4%; inhibition at 10 µM (TraR; read-out: A. tumefaciens-TraR Inhibition [%], 10 μM synthetic ligand against 100 nM OOHL, A. tumefaciens WCF47 (pCF372), normalized to OOHL): ~90%; activation at 5 µM (LasR [7]; read-out: E. coli-LasR Activation [%], 5 μM ligand, E. coli DH5α (pJN105L pSC11), normalized to OdDHL): 0%
O=C(CCCc1c[nH]c2ccccc12)N[C@H]1CCOC1=O [compound 9, indole AHL, reference compound]				0%			elastase B production inhibition (elastase B production): 66%
D-enantiomer of OOHL [A24]	7%	2%	16%	4%	6%	0%	
N-(phenylbutanoyl)-L-homoserine lactone [compound 6, reference compound]	70%	3%	~25% and ~20%	2%	93%	3%	pIC50 (TraR; determined against 100 nM OOHL, read-out: TraR IC50): 5.95
